Data on twelve molecules can be found in patent US9969749B2, “Inhibitors of IRAK4 activity” (MERCK SHARP & DOHME CORP., priority 2014, dated 2018).

Molecules are shown by their SMILES.

In general, IC50 refers to the concentration that inhibits the measured activity by half. A high value points to lower potency.

IRAK4, sequence (Q9NWZ3 whole entry): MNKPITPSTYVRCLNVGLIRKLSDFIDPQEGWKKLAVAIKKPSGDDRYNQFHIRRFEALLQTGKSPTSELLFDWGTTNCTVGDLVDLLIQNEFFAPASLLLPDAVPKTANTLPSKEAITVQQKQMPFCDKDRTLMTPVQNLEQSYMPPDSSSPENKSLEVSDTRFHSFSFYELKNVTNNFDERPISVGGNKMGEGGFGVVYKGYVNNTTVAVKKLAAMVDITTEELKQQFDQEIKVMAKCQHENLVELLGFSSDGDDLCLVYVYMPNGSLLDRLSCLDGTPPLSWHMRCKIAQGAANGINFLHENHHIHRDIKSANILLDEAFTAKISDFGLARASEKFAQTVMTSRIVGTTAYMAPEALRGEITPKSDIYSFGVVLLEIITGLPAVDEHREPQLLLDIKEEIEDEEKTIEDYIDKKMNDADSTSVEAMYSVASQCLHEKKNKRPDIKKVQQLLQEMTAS

The assay concerns the target IRAK4 (Homo sapiens (Human), UniProt Q9NWZ3). As to the kind of experiment: IRAK4 Kinase Assay (IMAP fluorescence polarization). Format: biochemical. To be noted: 0.5 nM GST tagged IRAK4, 100 μM ATP, 100 nM fluorescent peptide substrate RP7030, 30 minutes at 25° C. Put shortly:
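GST-tagged IRAK4 (0.5 nM) phosphorylates 100 nM fluorescent peptide with 100 μM ATP in 10 mM Tris pH 7.2, 1 mM MgCl2, 1 mM DTT, 0.01% Tween 20 for 30 min at 25 °C. Phosphorylation read as IMAP nanoparticle-binding fluorescence polarization after stop reagent.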
Background: Polarisation of emitted light reports the rotation of a fluorescent probe.
`CS(=O)(=O)N1CCN([C@H]2CC[C@H](Nc3ncnc4ccc(-c5cnc(F)c(N)c5)cc34)CC2)CC1` [Example 5-20, 6-(5-amino-6-fluoropyridin-3-yl)-N-{trans-4-[4-(methylsulfonyl)piperazin-1-yl]cyclohexyl}quinazolin-4-amine] came in with an IC50 of 4 nM.
For `Nc1cc(-c2ccc3ncnc(N[C@H]4CC[C@H](N5CCCC(CN6CCOCC6)C5)CC4)c3c2)cnc1F` (stereo partly drawn) [Example 5-21, 6-(5-amino-6-fluoropyridin-3-yl)-N-{trans-4-[3-(morpholin-4-ylmethyl)piperidin-1-yl]cyclohexyl}quinazolin-4-amine] the value was 2 nM; for `Nc1cc(-c2ccc3ncnc(N[C@H]4CC[C@H](N5CCO[C@@H](CF)C5)CC4)c3c2)cnc1F` [Example 5-22, 6-(5-amino-6-fluoropyridin-3-yl)-N-{trans-4-[(2R)-2-(fluoromethyl)morpholin-4-yl]cyclohexyl}quinazolin-4-amine], 4 nM; for `Nc1cc(-c2ccc3ncnc(N[C@H]4CC[C@H](N5CCO[C@H](CF)C5)CC4)c3c2)cnc1F` [Example 5-23, 6-(5-amino-6-fluoropyridin-3-yl)-N-{trans-4-[(2S)-2-(fluoromethyl)morpholin-4-yl]cyclohexyl}quinazolin-4-amine], 6 nM.
For the molecule `C[C@@H]1CN([C@H]2CC[C@H](Nc3ncnc4ccc(-c5cnc(F)c(N)c5)cc34)CC2)CCO1` [Example 5-24, 6-(5-amino-6-fluoropyridin-3-yl)-N-{trans-4-[(2R)-2-methylmorpholin-4-yl]cyclohexyl}quinazolin-4-amine], the IC50 is 1 nM.
`C[C@H]1CN([C@H]2CC[C@H](Nc3ncnc4ccc(-c5cnc(F)c(N)c5)cc34)CC2)CCO1` [Example 5-25, 6-(5-amino-6-fluoropyridin-3-yl)-N-{trans-4-[(2S)-2-methylmorpholin-4-yl]cyclohexyl}quinazolin-4-amine] gave an IC50 of 1 nM.
Regarding `CNc1cc(-c2ccc3ncnc(N[C@H]4CC[C@H](N5C[C@@H](C)O[C@@H](C)C5)CC4)c3c2)cnc1F` [Example 5-26, N-{trans-4-[(2R,6S)-2,6-dimethylmorpholin-4-yl]cyclohexyl}-6-[6-fluoro-5-(methylamino)pyridin-3-yl]quinazolin-4-amine], half-maximal inhibition (IC50) required 1 nM.
On to `CNc1cc(-c2ccc3ncnc(N[C@H]4CC[C@H](N5CCC(F)(F)CC5)CC4)c3c2)cnc1F` [Example 5-27, N-[trans-4-(4,4-difluoropiperidin-1-yl)cyclohexyl]-6-[6-fluoro-5-(methylamino)pyridin-3-yl]quinazolin-4-amine], for which the IC50 was 2 nM.
For `CNc1cc(-c2ccc3ncnc(N[C@H]4CC[C@H](N5CCN(C(=O)C6CC6)CC5)CC4)c3c2)cnc1F` [Example 5-28, cyclopropyl {4-[trans-4-({6-[6-fluoro-5-(methylamino)pyridin-3-yl]quinazolin-4-yl}amino)cyclohexyl]piperazin-1-yl}methanone], the IC50 turned out to be 1 nM.
On to `CNc1cc(-c2ccc3ncnc(N[C@H]4CC[C@H](N5CCC(F)CC5)CC4)c3c2)cnc1F` [Example 5-29, 6-[6-fluoro-5-(methylamino)pyridin-3-yl]-N-[trans-4-(4-fluoropiperidin-1-yl)cyclohexyl]quinazolin-4-amine], for which the IC50 stood at 2 nM.
For `CNc1cc(-c2ccc3ncnc(N[C@H]4CC[C@H](N5CCO[C@H](C)C5)CC4)c3c2)cnc1F` [Example 5-30, 6-[6-fluoro-5-(methylamino)pyridin-3-yl]-N-{trans-4-[(2R)-2-methylmorpholin-4-yl]cyclohexyl}quinazolin-4-amine] the value was 1 nM.
`CNc1cc(-c2ccc3ncnc(N[C@H]4CC[C@H](N5CCO[C@@H](C)C5)CC4)c3c2)cnc1F` [Example 5-31, 6-[6-fluoro-5-(methylamino)pyridin-3-yl]-N-{trans-4-[(2S)-2-methylmorpholin-4-yl]cyclohexyl}quinazolin-4-amine] registered an IC50 of 1 nM.
